# Results reported in patent publication US4594329A, “CRF analogs” (The Salk Institute for Biological Studies, priority 1984, dated 1986).
# Square brackets hold non-standard residues; d marks the D form. Peptide text beside a SMILES is read from it. * marks the point of attachment. hArg = N=C(N)NCCCC[C@H](N)C(=O)O; Nle = CCCC[C@H](N)C(=O)O; Orn = NCCC[C@H](N)C(=O)O; Bz = O=C(c1ccccc1)*
# Assays:
# [1] = tested on: cultured rat pituitary cells; experiment: secretion of ACTH and β-endorphin by cultured rat pituitary cells; type: cell-based
# Protocol: (§1) The synthetic peptide AHC and oCRF were examined for their effects on the secretion of ACTH and β-endorphin in vitro and was also in vivo. The potency of synthetic oCRF to stimulate the secretion of ACTH and β-endorphin by cultured rat pituitary cells was measured using the procedure as generally set forth in Endocrinology, 91, 562 (1972). […] In vivo testing is carried out using the general procedure set forth in C. Rivier et al., Science, 218, 377 (1982).
# [2] = lowering of blood pressure, in vivo testing; conditions: general procedure of Example III
# Protocol: as §1
# [3] = general procedure of Example III
"EC50 ([1]; cultured rat pituitary cells, read-out: concentration giving half-maximal responses, secretion of ACTH and β-endorphin) [nM]",Compound,"stimulates the secretion of ACTH and β-END-LI [1, 3]",lowering of blood pressure [2],"secretion of ACTH and β-END-LI, amount relative to oCRF ([1]; % of oCRF, general procedure of Example III)","potency ([1]; general statement, compared with native CRF, test not named)",secretory response to maximal concentrations ([1]; maximal (1-5 nM) concentrations)
–,CC[C@H](C)[C@H](NC(=O)[C@@H](NC(=O)[C@H](CC(=O)O)NC(=O)[C@H](CC(C)C)NC(=O)[C@H](CC(C)C)NC(=O)[C@H](CC(C)C)NC(=O)[C@H](CCCNC(=N)N)NC(=O)[C@H](CC(N)=O)NC(=O)[C@H](CC(N)=O)NC(=O)[C@H](C)NC(=O)[C@H](C)NC(=O)[C@H](CCC(N)=O)NC(=O)[C@H](CCC(=O)O)NC(=O)[C@H](CCCCN)NC(=O)[C@H](CCC(=O)O)NC(=O)[C@H](CCCCN)NC(=O)[C@H](CCC(=O)O)NC(=O)[C@H](CCC(N)=O)NC(=O)[C@H](CCCCN)NC(=O)[C@H](CCCNC(=N)N)NC(=O)[C@H](C)NC(=O)[C@H](CCC(=O)O)NC(=O)[C@@H](NC(=O)[C@H](CCSC)NC(=O)[C@H](CCCCN)NC(=O)[C@H](CCCNC(=N)N)NC(=O)[C@H](CC(C)C)NC(=O)[C@H](CC(C)C)NC(=O)[C@H](CCC(=O)O)NC(=O)[C@H](CC(C)C)NC(=O)[C@H](CO)NC(=O)[C@H](CC(C)C)NC(=O)[C@H](CC(=O)O)NC(=O)[C@@H](NC(=O)[C@H](CO)NC(=O)[C@@H](NC(=O)[C@@H]1CCCN1C(=O)[C@@H]1CCCN1C(=O)CNC(=O)[C@@H]1CCC(=O)N1)[C@@H](C)CC)[C@@H](C)CC)[C@@H](C)CC)[C@@H](C)CC)C(N)=O,stimulates the secretion of ACTH and β-END-LI,very significant lowering of blood pressure,–,–,–
–,CC[C@H](C)[C@H](NC(=O)[C@H](CCC(=O)O)NC(=O)[C@H](CC(=O)O)NC(=O)[C@H](CCSC)NC(=O)[C@H](CC(C)C)NC(=O)[C@H](CCCCNC(=N)N)NC(=O)[C@H](CCCNC(=N)N)NC(=O)[C@H](CC(N)=O)NC(=O)[C@H](CC(N)=O)NC(=O)[C@H](C)NC(=O)[C@H](C)NC(=O)[C@H](CCC(N)=O)NC(=O)[C@H](CCC(N)=O)NC(=O)[C@H](CCCCN)NC(=O)[C@H](CC(C)C)NC(=O)[C@H](CCCCN)NC(=O)[C@H](CCC(=O)O)NC(=O)[C@H](CCC(N)=O)NC(=O)[C@H](CCCCN)NC(=O)[C@H](CCC(=O)O)NC(=O)[C@@H](NC(=O)[C@H](CCC(=O)O)NC(=O)[C@@H](NC(=O)[C@H](CCSC)NC(=O)[C@H](CCCCN)NC(=O)[C@H](CCCNC(=N)N)NC(=O)[C@H](CC(C)C)NC(=O)[C@H](CC(C)C)NC(=O)[C@H](CCC(=O)O)NC(=O)[C@H](CC(C)C)NC(=O)[C@H](CO)NC(=O)[C@H](CC(C)C)NC(=O)[C@H](CC(=O)O)NC(=O)[C@@H](NC(=O)[C@H](CO)NC(=O)[C@@H](NC(=O)[C@@H]1CCCN1C(=O)[C@@H]1CCCN1C(=O)CNC(=O)[C@@H]1CCC(=O)N1)[C@@H](C)CC)[C@@H](C)CC)[C@@H](C)CC)[C@@H](C)CC)C(N)=O,stimulates the secretion of ACTH and β-END-LI,very significant lowering of blood pressure,–,–,–
–,CCCC[C@H](NC(=O)[C@@H](NC(=O)[C@H](CC(C)C)NC(=O)[C@H](CC(=O)O)NC(=O)[C@H](CC(C)C)NC(=O)[C@H](CO)NC(=O)[C@@H](NC(=O)[C@@H]1CCCN1C(=O)[C@@H]1CCCN1C(=O)[C@H](CCC(=O)O)NC(=O)CNC(=O)c1ccccc1)[C@@H](C)CC)[C@@H](C)O)C(=O)N[C@@H](Cc1c[nH]cn1)C(=O)N[C@@H](CC(C)C)C(=O)N[C@@H](CC(C)C)C(=O)N[C@@H](CCCNC(=N)N)C(=O)N[C@@H](CCC(=O)O)C(=O)N[C@H](C(=O)N[C@@H](CC(C)C)C(=O)N[C@@H](CCC(=O)O)C(=O)N[C@@H](CCSC)C(=O)N[C@@H](C)C(=O)N[C@@H](CCCNC(=N)N)C(=O)N[C@@H](C)C(=O)N[C@@H](CCC(=O)O)C(=O)N[C@@H](CCC(N)=O)C(=O)N[C@@H](CC(C)C)C(=O)N[C@@H](C)C(=O)N[C@@H](CCC(=O)O)C(=O)N[C@@H](CCC(N)=O)C(=O)N[C@@H](C)C(=O)N[C@@H](Cc1c[nH]cn1)C(=O)N[C@@H](CO)C(=O)N[C@@H](CC(N)=O)C(=O)N[C@@H](CCCNC(=N)N)C(=O)N[C@@H](CCCNC(=N)N)C(=O)N[C@@H](CC(C)C)C(=O)N[C@@H](CCSC)C(=O)N[C@@H](CCC(=O)O)C(=O)N[C@H](C(=O)N[C@H](C(N)=O)[C@@H](C)CC)[C@@H](C)CC)C(C)C (Bz-GEPPISLDLT[Nle]HLLREVLEMARAEQLAEQAHSNRRLMEII-NH2),stimulates the secretion of ACTH and β-END-LI,very significant lowering of blood pressure,–,–,–
–,CC[C@H](C)[C@H](NC(=O)[C@@H]1CCCN1C(=O)[C@@H]1CCCN1)C(=O)N[C@@H](CO)C(=O)N[C@@H](CC(C)C)C(=O)N[C@@H](CC(=O)O)C(=O)N[C@@H](CC(C)C)C(=O)N[C@H](C(=O)N[C@@H](CC(C)C)C(=O)N[C@@H](Cc1c[nH]cn1)C(=O)N[C@@H](CC(C)C)C(=O)N[C@@H](CC(C)C)C(=O)N[C@@H](CCCNC(=N)N)C(=O)N[C@@H](CCC(=O)O)C(=O)N[C@@H](CCSC)C(=O)N[C@@H](CC(C)C)C(=O)N[C@@H](CCC(=O)O)C(=O)N[C@@H](CCSC)C(=O)N[C@@H](CCC(=O)O)C(=O)N[C@@H](CCCN)C(=O)N[C@@H](C)C(=O)N[C@@H](CCC(=O)O)C(=O)N[C@@H](CCC(N)=O)C(=O)N[C@@H](CCC(=O)O)C(=O)N[C@@H](C)C(=O)N[C@@H](CCC(=O)O)C(=O)N[C@@H](CCC(N)=O)C(=O)N[C@@H](C)C(=O)N[C@@H](C)C(=O)N[C@@H](CC(C)C)C(=O)N[C@@H](CC(N)=O)C(=O)N[C@@H](CCCNC(=N)N)C(=O)N[C@@H](CCCCNC(=N)N)C(=O)N[C@@H](CC(C)C)C(=O)N[C@@H](CC(C)C)C(=O)N[C@@H](CCC(=O)O)C(=O)N[C@@H](CCC(=O)O)C(=O)N[C@@H](C)C(N)=O)[C@@H](C)O (H-PPISLDLTLHLLREMLEME[Orn]AEQEAEQAALNR[hArg]LLEEA-NH2),stimulates the secretion of ACTH and β-END-LI,very significant lowering of bloood pressure,–,–,–
–,"CCCC[C@H](NC(=O)[C@H](CCC(=O)O)NC(=O)[C@H](CC(C)C)NC(=O)[C@H](CCCC)NC(=O)[C@H](CCC(=O)O)NC(=O)[C@H](CCCNC(=N)N)NC(=O)[C@H](CC(C)C)NC(=O)[C@H](CC(C)C)NC(=O)[C@H](Cc1c[nH]cn1)NC(=O)[C@H](Cc1ccccc1)NC(=O)[C@@H](NC(=O)[C@H](CC(C)C)NC(=O)[C@H](CC(=O)O)NC(=O)[C@H](CC(C)C)NC(=O)[C@H](CO)NC(=O)[C@@H](NC(=O)[C@@H]1CCCN1C(=O)[C@H]1CCCN1)[C@@H](C)CC)[C@@H](C)O)C(=O)N[C@@H](C)C(=O)N[C@@H](CCCCN)C(=O)N[C@@H](C)C(=O)N[C@@H](CCC(=O)O)C(=O)N[C@@H](CCC(N)=O)C(=O)N[C@@H](CCC(=O)O)C(=O)N[C@@H](C)C(=O)N[C@@H](CCC(=O)O)C(=O)N[C@@H](CCC(N)=O)C(=O)N[C@@H](C)C(=O)N[C@@H](C)C(=O)N[C@@H](CC(C)C)C(=O)N[C@@H](CC(N)=O)C(=O)N[C@@H](CCCNC(=N)N)C(=O)N[C@@H](CC(C)C)C(=O)N[C@@H](CC(C)C)C(=O)N[C@@H](CC(C)C)C(=O)N[C@@H](CCC(=O)O)C(=O)N[C@@H](CCC(=O)O)C(=O)N[C@@H](C)C(N)=O [[D-Pro^4, Nle^18,21]-AHC(4-41)] (H-[dP]PISLDLTFHLLRE[Nle]LE[Nle]AKAEQEAEQAALNRLLLEEA-NH2)",–,very significant lowering of blood pressure,about 160%,–,–
–,"CC[C@H](C)[C@H](NC(=O)[C@H](CC(=O)O)NC(=O)[C@H](CC(C)C)NC(=O)[C@H](CC(C)C)NC(=O)[C@H](CCCCN)NC(=O)[C@H](CCCNC(=N)N)NC(=O)[C@H](CC(N)=O)NC(=O)[C@H](CO)NC(=O)[C@H](Cc1c[nH]cn1)NC(=O)[C@H](C)NC(=O)[C@H](CCC(N)=O)NC(=O)[C@H](CCC(N)=O)NC(=O)[C@H](C)NC(=O)[C@H](CC(C)C)NC(=O)[C@H](CCC(N)=O)NC(=O)[C@H](CC(=O)O)NC(=O)[C@H](C)NC(=O)[C@H](CCCCN)NC(=O)[C@H](CC(=O)O)NC(=O)[C@H](CCSC)NC(=O)[C@H](CCC(=O)O)NC(=O)[C@H](CC(C)C)NC(=O)[C@@H](NC(=O)[C@H](CCC(=O)O)NC(=O)[C@H](CCCNC(=N)N)NC(=O)[C@H](CC(C)C)NC(=O)[C@H](CC(C)C)NC(=O)[C@H](Cc1c[nH]cn1)NC(=O)[C@H](Cc1ccccc1)NC(=O)[C@@H](NC(=O)[C@H](CC(C)C)NC(=O)[C@H](CC(=O)O)NC(=O)[C@H](CC(C)C)NC(=O)[C@H](CO)NC(=O)[C@@H](NC(=O)[C@H]1CCCN1)[C@@H](C)CC)[C@@H](C)O)C(C)C)C(=O)N[C@@H](C)C(N)=O [[D-Pro^4,Asp^22]-oCRF(4-41)] (H-[dP]ISLDLTFHLLREVLEMDKADQLAQQAHSNRKLLDIA-NH2)",stimulates the secretion of ACTH and β-END-LI,very significant lowering of blood pressure,–,–,–
~0.065,H-SQEPPISLDLTFHLLREMLEMAKAEQEAEQAALNRLLLEEA-NH2 [AHC],–,–,–,particularly potent,at a plateau level
